Experimental data reported in patent US4595693A, “Method of use of 2,5-diaryl tetrahydrofurans and analogs thereof as PAF-antagonists” (Merck & Co., Inc., priority 1984, dated 1986).

How the values were obtained:
[1] = target: T1, PAF specific receptor binding site on rabbit platelet plasma membranes (Oryctolagus cuniculus, UniProt G1TEI7); experiment: Inhibition of 3H-PAF binding to rabbit platelet plasma membrane; conditions: 1 h
T1 construct: 100 μg of the platelet plasma membrane suspension; from tissue; host or cells: rabbit platelet plasma membranes
T1 sequence (G1TEI7 1-342): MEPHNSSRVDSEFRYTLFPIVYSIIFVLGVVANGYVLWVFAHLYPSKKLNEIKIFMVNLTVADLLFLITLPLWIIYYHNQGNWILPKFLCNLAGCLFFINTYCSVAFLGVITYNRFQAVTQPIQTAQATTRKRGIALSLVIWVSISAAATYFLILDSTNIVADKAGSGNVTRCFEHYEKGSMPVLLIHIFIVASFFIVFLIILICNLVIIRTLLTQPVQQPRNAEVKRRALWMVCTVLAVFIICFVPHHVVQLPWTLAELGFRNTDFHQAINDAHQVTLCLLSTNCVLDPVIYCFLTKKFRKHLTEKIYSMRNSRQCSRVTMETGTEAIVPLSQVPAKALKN
Experimental: The inhibition of H^3 -PAF binding to the rabbit platelet plasma membrane by a PAF-antagonist of Formula (I) was determined by a method employing isotopic labeling and filtration techniques. Generally, a series of Tris-buffered solutions of the selected antagonist at predetermined concentrations were prepared. […] After adding into a set of test tubes each with 100 μg of the platelet plasma membrane suspension and one of the Tris-buffer solutions described above, the resulting mixture in each test tube was incubated at 0° C. for about one hour or until the reaction was complete. Two control samples, one of which (C1) contains all the ingredients described above except the antagonist and the other (C2) contains C1 plus a 1000-fold excess of unlabelled PAF, were also prepared and incubated simultaneously with the test samples. After the incubation was completed, the contents of each test tube were filtered under vacuo through a Whatman GF/C fiberglass filter and the residue washed rapidly several times with a total of 20 ml cold (0°-5° C.) Tris-buffer solution. Each washed residue was then suspended in 10 ml scintillation solution (Aquasol 2, New England Nuclear, Conn.) and the radioactivity was counted in a Packard Tri-Carb 460CD Liquid Scintillation System. Defining the counts from a test sample as "Total binding with antagonist"; the counts from the control sample C1, as "Total binding C1 "; and the counts from the control sample C2 as "non-specific binding C2 ", the percent inhibition of each test antagonist can be determined by the following equation: [formula]

[2] = test system: PAF-induced degranulation; experiment: Method II: inhibition of PAF-induced degranulation in rats; format: in vivo, rat; conditions: oral dose of 50 mg/kg
PAF = experiment: PAF-antagonist activity (general comparison)
[3] = test system: PAF-induced cutaneous vascular permeability; experiment: Method I: oral inhibition of PAF-induced increase of cutaneous vascular permeability; format: in vivo; conditions: guinea pig, dose 50 mg/kg PO
From the text: The specific PAF-antagonistic activities are further established by two in vivo assays (Modified procedure of Humphrey et al. Lab. Investigation, 46, 422 (1982)) following the protocols described below:
Method I: Protocol for the evaluation of the oral activity of PAF antagonists or the inhibition of PAF-induced increase of vasopermeability by PAF-antagonists
I. Animal species: 5 guinea pigs (400-500 g)
II. Material: 0.5% (w/v) aqueous methylcellulose solution sodium nembutol
2% Evans Blue solution: 2 g of Evans Blue in 100 ml of pH 7.5 Tris-Buffer solution
Tris-Buffer solution: 150 mM NaCl and 10 mM Tris/ml with pH adjusted to 7.5.
1. Weigh the guinea pigs. Label them as control, T1, T2, T3 and T4.
2. Fast the animals overnight.
3. Weigh the animals again after the fasting.
4. Ground and suspend a PAF antagonist of formula (I) with intensive sonication in 3 ml of 0.5% aqueous methylcellulose solution.
5. […]
8. […] In the meantime, shave the backs of the guinea pigs and get ready for the PAF injection. […]
15. Measure the absorbance of each supernatant from Step (14) ("skin sample") as well as the plasma extract from Step (13) ("plasma sample") at 620 nm with a Cary 210 spectrophotometer (Varian, Palo Alto, CA). […]

| inhibition at 5 µM [1] [%] | inhibition at 1 µM [1] [%] | inhibition at 10 µM [1] [%] | SMILES | other results |
| --- | --- | --- | --- | --- |
| 13 | – | – | C[C@@H]1[C@@H](C)[C@H](c2ccccc2)O[C@@H]1c1ccccc1 (relative stereo) [R=CH3; R1=CH3; Ar=phenyl; Ar1=phenyl; isomer (1)] | – |
| – | – | 47 | COc1ccc([C@H]2O[C@@H](c3ccc(OC)cc3)[C@H](C)[C@H]2C)cc1 (relative stereo) [R=CH3; R1=CH3; Ar=4-methoxyphenyl; Ar1=Same as Ar; isomer (1)] | – |
| 61 | – | – | COc1cc([C@H]2O[C@@H](c3cc(OC)c(OC)c(OC)c3)[C@H](C)[C@H]2C)cc(OC)c1OC (relative stereo) [R=CH3; R1=CH3; Ar=3,4,5-trimethoxyphenyl; Ar1=Same as Ar; isomer (1)] | inhibition at 0.5 µM ([1]; dose 0.5 (μm)): 42% |
| – | 33 | – | COC(=O)[C@@H]1[C@H](C)[C@H](c2ccc(OC)c(OC)c2)O[C@@H]1c1ccc(OC)c(OC)c1 (relative stereo) [R=CO2CH3; R1=CH3; Ar=3,4-dimethoxyphenyl; Ar1=Same as Ar; isomer (4)] | – |
| – | – | 52 | COc1ccc(OC)c(C2OC(c3cc(OC)ccc3OC)C(C)C2C)c1 (stereo not shown) | – |
| – | 15 | – | COC(=O)[C@@H]1[C@@H](C(=O)OC)[C@H](c2cc(OC)c(O)cc2Cl)O[C@@H]1c1cc(OC)c(O)cc1Cl (relative stereo) | – |
| 39 | 2 | – | COc1cc([C@@H]2O[C@@H](c3cc(OC)c(OC)c(OC)c3)[C@H](C)[C@H]2C)cc(OC)c1OC (relative stereo) [R=CH3; R1=CH3; Ar=3,4,5-trimethoxyphenyl; Ar1=Same as Ar; isomer (2)] | inhibition at 20 µM [1]: 63% |
| – | 18 | – | COc1ccc([C@H]2O[C@@H](c3ccc(OC)c(OC)c3)[C@@H](C)[C@H]2C(=O)O)cc1OC (relative stereo) [R=COOH; R1=CH3; Ar=3,4-dimethoxyphenyl; Ar1=Same as Ar; isomer (4)] | – |

The next lines start with the molecule.

| SMILES | inhibition at 5 µM [1] [%] | inhibition at 1 µM [1] [%] | inhibition at 10 µM [1] [%] | other results |
| --- | --- | --- | --- | --- |
| COc1ccc([C@H]2O[C@@H](c3ccccc3)[C@@H](C)[C@H]2C)cc1OC (relative stereo) [R=CH3; R1=CH3; Ar=3,4-dimethoxyphenyl; Ar1=phenyl; isomer (4)] | – | 9 | 100 | – |
| COc1cccc([C@H]2O[C@@H](c3ccccc3)[C@@H](C)[C@H]2C)c1 (relative stereo) [R=CH3; R1=CH3; Ar=3-methoxyphenyl; Ar1=phenyl; isomer (4)] | – | 28 | 49 | – |
| C[C@@H]1[C@H](C)[C@H](c2ccccc2)O[C@@H]1c1ccc2c(c1)OCO2 (relative stereo) [R=CH3; R1=CH3; Ar=3,4-methylenedioxyphenyl; Ar1=phenyl; isomer (4)] | – | 11 | 45 | – |
| COC[C@H]1[C@@H](C)[C@@H](c2ccc(OC)c(OC)c2)O[C@H]1c1ccc(OC)c(OC)c1 (relative stereo) [R=CH3; R1=CH2OCH3; Ar=3,4-dimethoxyphenyl; Ar1=Same as Ar; isomer (4)] | 62 | – | – | – |
| CCOC(=O)[C@@H]1[C@@H](C(=O)OCC)[C@H](c2ccc(OC)c(OC)c2)O[C@@H]1c1ccc(OC)c(OC)c1 (relative stereo) [R=CO2Et; R1=CO2Et; Ar=3,4-dimethoxyphenyl; Ar1=Same as Ar; isomer (1)] | – | 63 | – | – |
| COc1cc([C@H]2O[C@@H](c3cc(OC)c(OC)c(OC)c3)[C@@H](C)[C@H]2C)cc(OC)c1OC [R=CH3; R1=CH3; Ar=3,4,5-trimethoxyphenyl; Ar1=Same as Ar; isomer (4)] | 48 | 12 | – | inhibition at 20 µM [1]: 68% |
| COc1ccc([C@H]2O[C@@H](c3ccc(OC)c(OC)c3)[C@@H](C)[C@H]2C)cc1OC [R=CH3; R1=CH3; Ar=3,4-dimethoxyphenyl; Ar1=Same as Ar; isomer (4), All cis-3,4-Dimethyl-2,5-bis(3,4-dimethoxyphenyl)-tetrahydrofuran] | – | – | – | inhibition of PAF-induced degranulation [2]: 49%; PAF-antagonist activity, rank in words (PAF): most active PAF-antagonist; % inhibition [3]: 30% |
